Measurements: patent US20080306007A1, “AGENTS FOR PROPHYLAXIS OR TREATMENT OF NEUROLOGICAL RELATED DISEASES AND CONDITIONS” (Newcastle Innovation Limited, priority 2007, published 2008)

Assays:
[1] = system: synaptosomes (glutamate release); assay: 4-AP evoked glutamate release (repetitive stimulation) in synaptosomes; assay type: cell-based, rat; conditions: 4-AP 1 mM
Experimental: (§1) In all SV recycling studies synaptosomes were prepared from rat cerebral cortex by centrifugation on discontinuous percoll gradients (Dunkley et al. 1986). The glutamate release assay was performed as described before (Cousin and Robinson 2000a). Data is presented as Ca^2+-dependent glutamate release, calculated as the difference between release in plus and minus Ca^2+ solutions. Penetratin peptides (Genemed Synthesis) were preincubated with the synaptosomes for 30 min before stimulation and had no effect on Ca^2+-independent release of glutamate.
Selective inhibition of SVE by the phospho-box peptide should produce a rundown or fatigue of glutamate release after repeated stimuli, since the supply of SVs will progressively decline. To produce repetitive stimulation in synaptosomes the K^+ channel blocker 4-aminopyridine (4-AP) was used. This produces a tetrodotoxin-sensitive repetitive firing that mimics in vivo stimulation. It has previously been reported that 4-AP evokes continual SV recycling for at least 15 minutes in synaptosomes. […] The inset is also zoomed on the first 3 min from 4-AP addition (which was at 60 s) to highlight the lack of effect during the first 45s.

[2] = system: synaptosomes (SV retrieval from the plasma membrane); assay: FM2-10 SV internalisation assay (purified SVs from synaptosomes); assay type: cell-based, rat
Experimental: (§2) Loading of FM2-10 (Molecular Probes) into recycling synaptosomal SVs was measured as previously described. Data is presented as Ca^2+-dependent FM2-10 unloading, which is the difference between release after loading in plus and minus Ca^2+ solutions. Where indicated, synaptosomes were preincubated with penetratin peptide for 30 min prior to stimulation of FM2-10 loading. […] The same assay was used to monitor the effect of penetratin peptide on SV exocytosis. However, in this instance, the synaptosomes were loaded with FM2-10 in plus Ca^2+ Krebs-like solution and, where indicated, were preincubated with penetratin peptide for 30 min prior to stimulation of FM2-10 unloading. Data is presented as Ca^2+-dependent FM2-10 unloading. The SV internalisation assay was performed as previously described.
If SVE was arrested before SV fission occurred, […]. SVs were purified and their fluorescence values were corrected for dye uptake in the absence of Ca^2+ (Ca^2+-dependent) and normalised to control (n=3, mean ±s.e.m.).

[3] = system: synaptosomes (synaptic vesicle turnover); assay: SV turnover assay (FM2-10 loading/unloading) in synaptosomes; assay type: cell-based, rat
Experimental: as §1, §2
SVE in synaptosomes was measured to determine whether the phosphorylation sites in dynamin I play a direct role in SVE. Since isolated nerve terminals cannot be transfected with DNA, a membrane-permeable peptide strategy was employed. Mimetic peptides (DynI769-784AA (SEQ ID No. 8) and DynI769-784EE (SEQ ID No. 9)) were designed corresponding to the amino acid sequence of the dynamin I phospho-box (FIG. 5a) and were tagged with a penetratin heptapeptide RRMKWKK (SEQ ID No. 12) to facilitate their delivery into synaptosomes. Briefly, synaptosomes were preincubated in the presence or absence of either penetratin peptide (250 μM) prior to FM2-10 loading stimulated by 30 mM KCl. Accumulated FM2-10 was unloaded by another KCl stimulus (indicated by the solid bar). […] If the phosphorylation-regulated syndapin I interaction itself is essential for SVE, the penetratin-linked peptides may inhibit the process. […] The DynI769-784AA peptide (250 μM) inhibited turnover by more than 40% (57.1±2.1% of control), compared to less than 20% with the DynI769-784EE peptide (250 μM, 81.1±2.4% of control).

[4] = biological target: T1, dynamin I-endophilin I interaction (Rattus norvegicus, UniProt O35179); assay: Elution of endophilin I from immunoprecipitated complex by peptide; assay type: binding; conditions: immunoprecipitated complex incubated with peptide
T1 construct: Syndapin I or dynamin I were immunoprecipitated from nerve terminals; from tissue; host or cells: rat brain crude (P2) synaptosomes
T1 sequence (O35179 whole entry): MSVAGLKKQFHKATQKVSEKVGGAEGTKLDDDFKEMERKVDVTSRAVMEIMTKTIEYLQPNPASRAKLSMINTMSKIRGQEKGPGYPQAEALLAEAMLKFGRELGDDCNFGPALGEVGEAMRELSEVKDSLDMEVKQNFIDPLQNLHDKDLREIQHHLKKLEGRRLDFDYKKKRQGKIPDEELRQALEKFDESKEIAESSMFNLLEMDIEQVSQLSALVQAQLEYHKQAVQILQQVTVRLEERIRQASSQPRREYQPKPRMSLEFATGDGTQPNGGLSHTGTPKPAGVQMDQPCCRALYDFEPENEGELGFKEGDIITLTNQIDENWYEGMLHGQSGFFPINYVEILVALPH
Experimental: To determine whether the phospho-box sequence might account for syndapin I recruitment to dynamin I, the ability of a DynI769-784AA peptide (FIG. 5a) to disrupt their interaction was tested. Syndapin I or dynamin I were immunoprecipitated from nerve terminals and the individual protein complexes were incubated with DynI769-784AA (SEQ ID No. 8) peptide (see below). Their interaction in both cases was reduced by the peptide, as indicated by the specific release of either binding partner from the bead-bound complex (FIG. 4c). No elution of endophilin I (FIG. 4c) or amphiphysin I (data not shown) was detected, highlighting the specificity of the interaction.
Crude (P2) synaptosomes were prepared from rat brain and lysed as described in Example 1.1.3. Synaptosome lysates were incubated with 5 μg of anti-syndapin I or […] pre-bound to protein G-sepharose (Roche) for 3 h at 4° C. Beads were washed with ice-cold PBS, eluted in SDS-PAGE sample buffer and blotted with anti-syndapin I, anti-endophilin I and anti-dynamin I antibodies.

[5] = system: synaptosomes (SV exocytosis); assay: FM2-10 unloading (SV exocytosis) assay in synaptosomes; assay type: cell-based, rat; conditions: evoked by 30 mM KCl; peptide preincubated 30 min before unloading
Experimental: as §2
A block in SV turnover cannot be ascribed to an inhibition of SVE until an effect on exocytosis has been excluded. Two independent exocytosis assays were conducted to assess this: endogenous glutamate release and FM2-10 unloading. […] Finally, the extent of SVE inhibition by the peptides was quantified by calculating “retrieval efficiency” which takes into account prior exocytosis; a value of less than one indicating a selective SVE inhibition. […]

[6] = system: synaptosomes (SV exocytosis); assay: KCl-evoked Ca2+-dependent glutamate release assay in synaptosomes; assay type: cell-based, rat; conditions: peptide preincubated 30 min; KCl stimulation
Experimental: as §1
A block in SV turnover cannot be ascribed to an inhibition of SVE until an effect on exocytosis has been excluded. Two independent exocytosis assays were conducted to assess this: endogenous glutamate release and FM2-10 unloading. Neither the DynI769-784AA nor DynI769-784EE peptide had any significant effect on KCl-evoked Ca^2+-dependent glutamate release (DynI769-784AA […]±8.4% of control; DynI769-784EE […]±9.5% of control, FIG. 5c). Both peptides had small effects on FM2-10 unloading evoked by 30 mM KCl (DynI769-784AA −81.1±0.8% of control; DynI769-784EE −82.3±0.6% of control, FIG. 5d). Finally, the extent of SVE inhibition by the peptides was quantified by calculating “retrieval efficiency” which takes into account prior exocytosis; a value of less than one indicating a selective SVE inhibition. […]

For “DynI769-784AA: Dynamin I phospho-box mimetic peptide (residues 769-784), AA mutant, tagged with penetratin heptapeptide RRMKWKK (RRMKWKKPAGRRAPTSAPTPQRR; listed as Rattus norvegicus)”, the “effect on the first 45 sec of 4-AP evoked exocytosis” value ([1]; first 45 sec) was “without effect”, the “effect on 4-AP evoked glutamate release with continued stimulation” value ([1]; repetitive stimulation) was “activity-dependent depression of release that increased with continued stimulation” and the “inhibition of FM2-10 accumulation in SVs” value [2] was “approximately 35%”. For the same substance, the “FM2-10 accumulation in purified SVs (Ca2+-dependent)” value ([2]; n=3, mean ± s.e.m.) was 64.9±5.5 % of control, the “inhibition of SV turnover” value ([3]; peptide 250 μM) was “more than 40%” and the SV turnover ([3]; peptide 250 μM, 30 min preincubation, FM2-10 loading with 30 mM KCl) was 57.1±2.1 % of control. For the same substance, the “retrieval efficiency (SV turnover/exocytosis)” value ([3]; using data from either exocytosis assay, value below one = selective SVE inhibition) was “robust inhibition”, the “elution of endophilin I from complex” value [4] was “No elution” and the FM2-10 unloading [5] was 81.1±0.8 % of control. For the same substance, the “KCl-evoked Ca2+-dependent glutamate release” value [6] was 92.5±8.4 % of control.
